Paper PMC7766697, “Toxicological Screening of Four Bioactive Citroflavonoids: In Vitro, In Vivo, and In Silico Approaches” (Molecules, 2020)
Like-named read-outs stand apart in the source and are kept apart here.

What was measured:
Wistar rats [1] = settings: for ALB (albumin) / ALT / AST / DB (direct bilirubin) / GL (globulin) / GLU (glucose) / IB (indirect bilirubin) / TB (total bilirubin) / TP (total protein): rat, in vivo, po; for ALB/GL Ratio: rats, after 14 days, plasma
MDCK cells = assay: MTT-based cytotoxicity assay in MDCK cells; format: cell-based, Canine; settings: 48 h, 125 to 750 µg/mL (QRT effect at 250 and 500 µg/mL)
Method: (§1) VERO and MDCK cell lines were acquired from American Type Culture Collection (ATCC, Manassas, VA, USA). […] In vitro cytotoxicity assay was performed on Madin-Darby Canine Kidney Epithelial Cells (MDCK) and green Monkey Kidney Cells (VERO) by MTT-based assay. Briefly, cells were seeded in 96-well plates at a density of 2.5 × 10^3 cells/well. […] The absorbance was measured after 45 min using a microplate reader (Multiskan Asent®) at a wavelength of 550 nm. The criteria for categorizing cytotoxicity against MDCK and VERO cells are based on the U.S. National Cancer Institute (NCI). The criteria comprise as follow: […] All results were expressed as mean ± standard error. The results from the in vivo and in vitro experiments were analyzed using software Origin® 8.0. […] The IC50 (half inhibitory concentration) values were calculated in Origin software®, (Northampton, MA, USA) and one-way ANOVA analysis was compared with cisplatin as the control.

Wistar rats [2] = format: in vivo; settings: rat, in vivo, po
Method: (§2) Rats used for this experiment were fasted for 8 h and were organized into two groups of three rats for each dose and each flavonoid. Likewise, the control group received isotonic 0.9% sodium chloride solution (dose: 5 mL/kg). All rats were closely observed for toxic symptoms and behavioral changes (sedation, hyperactivity, writhing, pruritus, feeding and drinking habits, general morphological changes, and bite legs) for 30 min and periodically 24 h post-administration. Animals were observed daily (14 days) and mortality rate recorded. A LD50 was estimated according to criteria of OECD guide 423.
The rats’ body weight in each group was determined and recorded before the treatment initiation and after 14 days. Changes in the body weight at the end of the 14 days were calculated. Once observation time was completed and to detect any adverse effect, blood samples were collected by cardiac puncture after the previous fasting of 8 h. For this purpose, rats were anesthetized by intraperitoneally 50 mg/kg sodium pentobarbital. The liver was carefully extracted, rinsed in normal saline, drained on blotting paper, and carefully examined for tissue lesions. In addition, organ weight was determined.
Rat blood samples were analyzed by a hematology auto-analyzer system (Sysmex XS-1000i®, SYSMEX®, Oak Ridge, TN, USA). The parameters quantified on this stage were: blood count-packed cell volume (PCV), red blood cell (RBC) count, hemoglobin (Hb), platelet count, white blood cell (WBC) count, mean cell hemoglobin concentration (MCHC), mean red cell volume (MCV), mean cell hemoglobin (MCH), prothrombin time (PT), and activated partial thromboplastin time (aPTT).

VERO cells = assay: MTT-based cytotoxicity assay in VERO cells; format: cell-based, green Monkey; settings: 48 h, 125 to 750 µg/mL (QRT effect at 250–750 µg/mL)
Method: as §1

panel of five cell lines = system: panel of five cell lines; parameters: method as in PMID 28662177; settings: 5–50 µg/mL; cited from earlier work
Wistar rats [3] = assay: Acute oral toxicity, OECD Test No. 423 (mortality, signs, LD50, body weight); format: in vivo; settings: oral, 14 days
Method: Female Wistar rats (250 g b.w.) were used. These animals were obtained from Bioterium from División de Ciencias de la Salud at the Universidad de Quintana Roo. They were maintained under standard environmental conditions (22 ± 3 °C, 12 h/12 h light/dark cycle), and free access to standard rodent diet and water ad libitum. All animal procedures were conducted under our Federal Regulations for Animal Experimentation and Care and were approved by the Institutional Animal Care and Use Committee of the “Universidad Juárez Autónoma de Tabasco” university (Code:2017-001, Approved: October 2017). Rats were acclimatized for 1 week before the start of experimental procedures.
The half lethal dose (LD50) was estimated using the fixed-dose method described in OECD Guidelines for the Testing of Chemicals (Test No. 423: Acute Oral Toxicity-Class Method; OECD, 2001). […] This method allowed a step-by-step assay according to the chosen dose to begin the experiment. Subsequently, depending on the presence or absence of mortality, the decision to continue within the next step is taken, so fewer experimental animals should be used.
as §2
The rats’ body weight in each group was determined and recorded before the treatment initiation and after 14 days. Changes in the body weight at the end of the 14 days were calculated. Once observation time was completed and to detect any adverse effect, blood samples were collected by cardiac puncture after the previous fasting of 8 h. […] In addition, organ weight was determined.

With `C[C@@H]1O[C@@H](O[C@H]2[C@H](Oc3cc(O)c4c(c3)O[C@H](c3ccc(O)cc3)CC4=O)O[C@H](CO)[C@@H](O)[C@@H]2O)[C@H](O)[C@H](O)[C@H]1O` [NAR, naringin] the “ALB (albumin)” value (Wistar rats [1]; 300 mg/kg) was 4.50 ± 0.02 g/dL, the ALT (Wistar rats [1]; 300 mg/kg) was 27.57 ± 0.62 IU/L and the AST (Wistar rats [1]; 300 mg/kg) was 144.58 ± 17.05 IU/L. The “DB (direct bilirubin)” value (Wistar rats [1]; 300 mg/kg) was 0.012 ± 0.0009 mg/dL, the “GL (globulin)” value (Wistar rats [1]; 300 mg/kg) was 1.97 ± 0.04 g/dL and the “GLU (glucose)” value (Wistar rats [1]; 300 mg/kg) was 125.54 ± 14.59 mg/dL. The “IB (indirect bilirubin)” value (Wistar rats [1]; 300 mg/kg) was 0.024 ± 0.0007 mg/dL, the “TB (total bilirubin)” value (Wistar rats [1]; 300 mg/kg) was 0.037 ± 0.001 mg/dL and the “TP (total protein)” value (Wistar rats [1]; 300 mg/kg) was 6.48 ± 0.04 g/dL. For the same molecule, the “ALB (albumin)” value (Wistar rats [1]; 2000 mg/kg) was 4.66 ± 0.16 g/dL, the ALT (Wistar rats [1]; 2000 mg/kg) was 38.59 ± 1.08 IU/L and the AST (Wistar rats [1]; 2000 mg/kg) was 128.26 ± 5.33 IU/L. The “DB (direct bilirubin)” value (Wistar rats [1]; 2000 mg/kg) was 0.015 ± 0.001 mg/dL, the “GL (globulin)” value (Wistar rats [1]; 2000 mg/kg) was 2.03 ± 0.05 g/dL and the “GLU (glucose)” value (Wistar rats [1]; 2000 mg/kg) was 138.55 ± 10.48 mg/dL. For the same molecule, the “IB (indirect bilirubin)” value (Wistar rats [1]; 2000 mg/kg) was 0.025 ± 0.003 mg/dL, the “TB (total bilirubin)” value (Wistar rats [1]; 2000 mg/kg) was 0.039 ± 0.004 mg/dL and the “TP (total protein)” value (Wistar rats [1]; 2000 mg/kg) was 6.71 ± 0.14 g/dL. For the same molecule, the “ALB/GL Ratio” value (Wistar rats [1]; oral 300 mg/kg) was 2.30 ± 0.05, the “ALB/GL Ratio” value (Wistar rats [1]; oral 2000 mg/kg) was 2.32 ± 0.12 and the “percentage viability / growth of cells” value (MDCK cells) was “did not change the percentage of growth”. For the same molecule, the Erythrocytes (Wistar rats [2]; 300 mg/kg) was 7.79±0.27 106/µL, the Hb (Wistar rats [2]; 300 mg/kg) was 14.03 ± 0.38 g/dL and the Hto (Wistar rats [2]; 300 mg/kg) was 40.63±1.03%. For the same molecule, the Leukocytes (Wistar rats [2]; 300 mg/kg) was 2.65±0.30 103/µL, the MCH (Wistar rats [2]; 300 mg/kg) was 18.03 ± 0.16 pg and the MCV (Wistar rats [2]; 300 mg/kg) was 54.40 ± 1.92 fL. For the same molecule, the Platelets (Wistar rats [2]; 300 mg/kg) was 726.00±12.26 105/µL, the RBCDW (Wistar rats [2]; 300 mg/kg) was 16.16±0.58% and the Erythrocytes (Wistar rats [2]; 2000 mg/kg) was 7.41±0.11 106/µL. For the same molecule, the Hb (Wistar rats [2]; 2000 mg/kg) was 13.67 ± 0.16 g/dL, the Hto (Wistar rats [2]; 2000 mg/kg) was 40.66±0.39% and the Leukocytes (Wistar rats [2]; 2000 mg/kg) was 4.45±0.98 103/µL. The MCH (Wistar rats [2]; 2000 mg/kg) was 18.43 ± 0.05 pg, the MCHC (Wistar rats [2]; 2000 mg/kg) was 33.50 ± 0.14 g/dL and the MCV (Wistar rats [2]; 2000 mg/kg) was 54.86 ± 0.38 fL. For the same molecule, the Platelets (Wistar rats [2]; 2000 mg/kg) was 553.00±239.61 105/µL, the RBCDW (Wistar rats [2]; 2000 mg/kg) was 15.80±0.12% and the “percentage viability / growth of cells” value (VERO cells) was “did not change the percentage of growth”. For the same molecule, the “cytotoxicity (mitochondrial membrane potential, cell membrane integrity, nuclear morphology)” value (panel of five cell lines) was “not cytotoxic” and the “weight gain / body weight vs control” value (Wistar rats [3]) was “changed the body weight”.
